# Reference: PMC9926234, “Iterative computational design and crystallographic screening identifies potent inhibitors targeting the Nsp3 macrodomain of SARS-CoV-2” (Proceedings of the National Academy of Sciences of the …, 2023)
# Read-outs that look alike come from different tables or passages of the source.
# Assays:
# Format in all cases: binding
# [1] = biological target: T1, SARS-CoV-2 NSP3 Mac1 (Severe acute respiratory syndrome coronavirus 2, UniProt P0DTD1); assay: biochemical; conditions: for IC50: read-out: IC50
# [2] = biological target: T1, SARS-CoV-2 NSP3 Mac1; conditions: for Refined occupancy: ligand occupancy after refinement (phenix.refine)
# [3] = biological target: T1, SARS-CoV-2 NSP3 Mac1; design: contains a conserved macrodomain enzyme (Mac1); conditions: for Spearman est (compound concentration vs apparent Tm): DSF dose responsiveness, 1 µM nsp3 mac1, adj p given
# How it was run: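 ΔTma values are thermal shifts relative to a co-located DMSO-only control, read with 5 µM Fluorescent Yellow dye. Each compound was tested in triplicate over seven concentrations (two-fold steps, top 1,000 or 100 μM). Spearman correlation of concentration versus ΔTma tested whether the shift was dose-responsive.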
# [4] = PanDDA event map, 1 minus background density correction, crystal soaking of Mac1
# [5] = true hit = binding in crystallographic soaking or the HTRF-based binding assay
# [6] = maximal thermal upshift vs DMSO control
# [7] = PanDDA 1-BDC (background density correction) of the event, crystal soak 100 mM, PanDDA run dmso_34
# [8] = crystal soak, compound concentration 100 mM, PanDDA run dmso_34, series docking_lead-like_1
# [9] = ligand modeled in the crystal structure, crystal soak 100 mM, PanDDA run dmso_34
# [10] = overall hit flag: binding in crystallographic soaking or the HTRF-based binding assay
# [11] = PanDDA 1-BDC value of the event, crystal soak, compound concentration 100 mM, per dataset
# [12] = crystal soak, compound concentration 100 mM, per dataset
# [13] = ligand modeled in the crystal structure, crystal soak, compound concentration 100 mM, per dataset
# [14] = ligand modeled from this dataset, compound concentration 100 mM
SMILES,Refined occupancy ([2]; crystal soaking of Mac1),"HIT* [2, 5]",Spearman est (compound concentration vs apparent Tm) [3],"DSF max dTma [3, 6]","1-BDC [2, 7]","1-BDC [2, 4]","PanDDA hit? [2, 8]","Modeled? [2, 9]","HIT* [2, 10]",DSF max dTma ([3]; maximal thermal upshift),also measured
CN(C(=O)c1ccc(NC(=O)NC2CC2)cc1)C1c2cccc(O)c2CC1C(=O)O (stereo not drawn) [Z8539_0056],–,–,–,–,–,–,–,–,–,–,"binding to Mac1 in the HTRF assay, result in words [1]: inactive"
Nc1cc(NC(=O)NC2CC2)ccc1C(=O)NC1c2cccc(O)c2CC1C(=O)O (stereo not drawn) [Z8539_0059],50,Y,–,–,–,–,–,–,–,–,"IC50 ([1]; HTRF ADPr-peptide displacement from SARS-CoV-2 Mac1): 0.9 µM; IC50 ([1]; HTRF): 0.8 µM; Ki ([1]; Ki estimation from HTRF-derived IC50, Cheng-Prusoff, peptide 400nM, Kd 2.68µM, read-out: Ki***): 0.7 µM; 1-BDC ([2]; PanDDA event map 1-BDC, crystal soak, Compound_concentration 100 mM, PanDDA run dmso_34 or nohits_35 per dataset): 0.25; 1-BDC (PanDDA) [2, 4]: 0.25; PanDDA hit? ([2]; crystal soak, Compound_concentration 100 mM, Echo dispense 40 nl, PanDDA run dmso_34 or nohits_35 per dataset): TRUE; Modeled? ([2]; ligand modeled in this dataset, crystal soak, Compound_concentration 100 mM): TRUE"
Nc1ncnc2c1ncn2Cc1cccc(C(F)(F)F)c1 [ZINC000110510893],70,–,0.5,0.5 °C,0.35,0.35,TRUE,TRUE,Y,–,–
Nc1ncnc(N2CCC(Oc3ccncc3)C2)c1Cl (stereo not drawn) [ZINC000302059710],26,–,−0.85,0 °C,–,0.13,–,–,Y,–,"1-BDC ([2]; PanDDA event map background density correction, crystal soak, Compound_concentration 100 mM, PanDDA run dmso_34): 0.13; PanDDA hit? ([2]; crystal soak, Compound_concentration 100 mM, Echo dispense 40 nl, PanDDA run dmso_34): TRUE; Modeled? ([2]; ligand modeled in crystal structure, crystal soak, Compound_concentration 100 mM, PanDDA run dmso_34): TRUE"
Nc1ncnc2c1ncn2Cc1ccc(Cl)cn1 [ZINC000559260078],30,–,0.88,0.98 °C,0.15,0.15,TRUE,TRUE,Y,–,–
Cc1ccc([C@@H]2C[C@@H](C)CCN2C(=O)c2ncnc3[nH]ccc23)o1 [ZINC000611664196],10,Y,−0.75,–,–,0.05,–,–,–,0.14 ˚C,"1-BDC [2, 11]: 0.05; PanDDA hit? [2, 12]: TRUE; Modeled? [2, 13]: TRUE"
Nc1ncnc2c1ncn2Cc1cc(-c2ccco2)on1 [ZINC000681764827],50,–,0.38,0.63 °C,0.16,0.16,TRUE,TRUE,Y,–,–
O=C(c1ncnc2[nH]ccc12)N1CC=CC12CCCCC2 [ZINC000827900828],36,–,−0.37,0.93 °C,0.18,0.18,TRUE,TRUE,Y,–,–
C[C@H]1CN(C(=O)c2cccc3[nH]c(=O)oc23)C[C@@H]1C(=O)O [ZINC000833624464],16,Y,−0.44,–,–,–,–,–,–,0.3 ˚C,"1-BDC (PanDDA) [2, 4]: 0.08; Modeled? [2, 14]: TRUE"
Cc1nnc(CNc2cnc(N)c(Cl)n2)n1C1CC1 [ZINC000893101964],8,Y,−0.12,–,–,0.04,–,–,–,0.12 ˚C,"1-BDC [2, 11]: 0.04; PanDDA hit? [2, 12]: TRUE; Modeled? [2, 13]: TRUE"
CC(CSc1nnc2[nH]cnn12)c1ccccc1 (stereo not drawn) [ZINC000920153280],40,–,−0.66,0 °C,0.2,0.2,TRUE,TRUE,Y,–,–
Cc1noc(-c2ccnc(-c3ccnc4[nH]ccc34)c2)n1 [ZINC001240411747],14,Y,−0.16,–,–,–,–,–,–,0.04 ˚C,"1-BDC (PanDDA) [2, 4]: 0.07; Modeled? [2, 14]: TRUE"
Cc1cc(S(=O)(=O)N2CCC[C@H](C(N)=O)C2)cnc1N [ZINC001364774273],20,Y,0.3,–,–,0.1,–,–,–,0.21 ˚C,–
CN(Cc1nnc2c(=O)[nH]ccn12)c1ccc2nccnc2n1 [ZINC001472868186],30,–,0.79,0.81 °C,–,0.15,–,–,Y,–,"1-BDC ([2]; PanDDA event map, crystal soak, Compound_concentration 30 mM, PanDDA run dmso_34): 0.15; PanDDA hit? ([2]; crystal soak, Compound_concentration 30 mM, Echo dispense 40 nl, PanDDA run dmso_34): TRUE; Modeled? ([2]; ligand modeled in structure, crystal soak, Compound_concentration 30 mM): TRUE"
